Results as given in US10604509B2, “Nrf2 regulators” (GlaxoSmithKline Intellectual Property Development Limited, priority 2015, dated 2020).
Structures can show the parent of a compound that is named as a salt. Where two headings read alike, the source gives them in different places.

Tested on: NQO1 specific enzyme activity in BEAS-2B cells
Experiment: BEAS-2B NQO1 MTT assay
Type: cell-based
Conditions: BEAS-2B cells, 48 hours with compound, MTT readout, read-out: EC50 of NQO1 specific activity induction
Description: NAD(P)H:quinone oxidoreductase 1 (NQO1), also called DT diaphorase, is a homodimeric FAD-containing enzyme that catalyzes obligatory NAD(P)H-dependent two-electron reductions of quinones and protects cells against the toxic and neoplastic effects of free radicals and reactive oxygen species arising from one-electron reductions. The transcription of NQO1 is finely regulated by NRF2, and thus NQO1 activity is a good marker for NRF2 activation. On day one, frozen BEAS-2B cells (ATCC) are thawed in a water bath, counted, and re-suspended at a concentration of 250,000 cells/mL. Fifty microliters of cells are plated in 384 well black clear-bottomed plates. Plates are incubated at 37° C., 5% CO2 overnight. On day two, plates are centrifuged and 50 nL of compound or controls are added to the cells. Plates are then incubated at 37° C., 5% CO2 for 48 hours. On day four, medium is aspirated from the plate and crude cell lysates are made by adding 13 uL of 1× Cell Signaling Technologies lysis buffer with 1 Complete, Mini, EDTA-free Protease Inhibitor Tablet (Roche) for each 10 mL of lysis buffer. After lysis plates are incubated for 20 minutes at room temperature. Two microliters of lysate are removed for use in Cell Titer Glo assay (Promega) and MTT cocktail is prepared (Prochaska et. al. 1998) for measurement of NQO1 activity. Fifty microliters of MTT cocktail is added to each well, plate is centrifuged, and analyzed on an Envision plate reader (Perkin Elmer) using Absorbance 570 nm label for 30 minutes. Product formation is measured kinetically and the EC50 of NQO1 specific activity induction is calculated by plotting the change in absorbance (Delta OD/min) versus the log of compound concentration followed by 3-parameter fitting.

Compound	EC50 (Homo sapiens, BEAS-2B, 48 h) [nM]	also measured
CC[C@@H]1CN(Cc2cc(C(CC(=O)O)c3ccc4c(nnn4C)c3C)ccc2C)Cc2cccnc2O1 (stereo partly drawn) [Example 116, 3-(1,4-Dimethyl-1H-benzo[d][1,2,3]triazol-5-yl)-3-(3-(((R)-2-ethyl-2,3-dihydropyrido[3,2-f][1,4]oxazepin-4(5H)-yl)methyl)-4-methylphenyl)propanoic Acid, Formic Acid Salt]	1000 to 10000	
CC[C@@H]1CN(Cc2cc(C(CC(=O)O)c3ccc4c(nnn4C)c3C)ccc2C)Cc2ncccc2O1 (stereo partly drawn) [Example 79, 3-(1,4-Dimethyl-1H-benzo[d][1,2,3]triazol-5-yl)-3-(3-(((R)-2-ethyl-2,3-dihydropyrido[2,3-f][1,4]oxazepin-4(5H)-yl)methyl)-4-methylphenyl)propanoic acid]	1000 to 10000	
Cc1ccc(C(CCc2cn(C)nn2)CC(=O)O)cc1Cn1ccnc1CC1CCCCC1 (stereo not drawn) [Example 130, 3-(3-((2-(Cyclohexylmethyl)-1H-imidazol-1-yl)methyl)-4-methylphenyl)-5-(1-methyl-1H-1,2,3-triazol-4-yl)pentanoic Acid]	100 to 1000	
CCC1CN(Cc2cc(C(CC(=O)O)c3ccc4c(nnn4C)c3C)ccc2C)Cc2c(Cl)cccc2O1 (stereo not drawn) [Example 88, 3-(3-((6-Chloro-2-ethyl-2,3-dihydrobenzo[f][1,4]oxazepin-4(5H)-yl)methyl)-4-methylphenyl)-3-(1,4-dimethyl-1H-benzo[d][1,2,3]triazol-5-yl)propanoic acid]	100 to 1000	
Cc1ccc(C(CC(=O)O)c2ccc3c(nnn3C)c2C)cc1CN1CCCC1c1nnc(C(C)C)[nH]1 (stereo not drawn) [Example 10, Ammonium 3-(1,4-dimethyl-1H-benzo[d][1,2,3]triazol-5-yl)-3-(3-((2-(5-isopropyl-4H-1,2,4-triazol-3-yl)pyrrolidin-1-yl)methyl)-4-methylphenyl)propanoate]	1000 to 10000	
Cc1ccc(C(CC(=O)O)c2ccc3c(nnn3C)c2C)cc1Cc1nnnn1CC1CCCCC1 (stereo not drawn) [Example 134, 3-(3-((1-(Cyclohexylmethyl)-1H-tetrazol-5-yl)methyl)-4-methylphenyl)-3-(1,4-dimethyl-1H-benzo[d][1,2,3]triazol-5-yl)propanoic acid, hydrochloride salt]	100 to 1000	
Cc1ccc([C@H](CC(=O)O)c2ccc3c(nnn3C)c2C)cc1CN1Cc2ccccc2OC(C)(C)C1 [Example 109, (S)-3-(1,4-dimethyl-1H-benzo[d][1,2,3]triazol-5-yl)-3-(3-((2,2-dimethyl-2,3-dihydrobenzo[f][1,4]oxazepin-4(5H)-yl)methyl)-4-methylphenyl)propanoic Acid, Formic Acid Salt]	100 to 1000	
Cc1ccc(C(c2ccc3c(nnn3C)c2C)C2(C(=O)O)CC2)cc1CN1Cc2cnccc2OC(C)(C)C1 (stereo not drawn) [Example 211, 1-((1,4-Dimethyl-1H-benzo[d][1,2,3]triazol-5-yl)(3-((2,2-dimethyl-2,3-dihydropyrido[3,4-f][1,4]oxazepin-4(5H)-yl)methyl)-4-methylphenyl)methyl)cyclopropanecarboxylic acid, Trifluoroacetic Acid Salt]	10 to 100	
CCC1Cc2c(F)cccc2CN(Cc2cc(C(c3ccc4c(nnn4C)c3C)C(C)(C)C(=O)O)ccc2C)C1 (stereo not drawn) [Example 36, 3-(1,4-Dimethyl-1H-benzo[d][1,2,3]triazol-5-yl)-3-(3-((4-ethyl-6-fluoro-4,5-dihydro-1H-benzo[c]azepin-2(3H)-yl)methyl)-4-methylphenyl)-2,2-dimethylpropanoic acid]	1 to 10	
CC[C@@H]1CN(Cc2cc([C@@H](c3ccc4c(nnn4C)c3C)C(C)(C)C(=O)O)ccc2C)Cc2cnc(Cl)cc2O1 [Example 29]	< 1	
Cc1ccc(C(c2ccc3c(nnn3C)c2C)C(C)(C)C(=O)O)cc1Cn1ccnc1CN1CCCCCC1 (stereo not drawn) [Example 151, 3-(3-((2-(Azepan-1-ylmethyl)-1H-imidazol-1-yl)methyl)-4-methylphenyl)-3-(1,4-dimethyl-1H-benzo-[d][1,2,3]triazol-5-yl)-2,2-domethylpropanoic acid, 0.3 formic acid salt]		EC50 (formic acid salt): 1 to 10 nM
CCOC(=O)C(C)(C)[C@@H](c1ccc(C)c(CN2Cc3cnccc3O[C@H](CC)C2)c1)c1ccc2c(nnn2C)c1C [Example 257, (S)-ethyl 3-(1,4-dimethyl-1H-benzo[d][1,2,3]triazol-5-yl)-3-(3-(((R)-2-ethyl-2,3-dihydropyrido[3,4-f][1,4]oxazepin-4(5H)-yl)methyl)-4-methylphenyl)-2,2-dimethylpropanoate]	100 to 1000	
Cc1ccc(C2(C)CN(Cc3cc(C(CC(=O)O)c4ccc5c(nnn5C)c4C)ccc3C)CCO2)cc1 (stereo not drawn) [Example 18, 3-(1,4-Dimethyl-1H-benzo[d][1,2,3]triazol-5-yl)-3-(4-methyl-3-((2-methyl-2-(p-tolyl)morpholino)methyl)phenyl)propanoic Acid, Formic Acid Salt]	1000 to 10000	
CCC1CN(Cc2cc(C(CCc3cn(CC)nn3)CC(=O)O)ccc2C)Cc2ccccc2O1 (stereo not drawn) [Example 4, 5-(1-Ethyl-1H-1,2,3-triazol-4-yl)-3-(3-((2-ethyl-2,3-dihydrobenzo[f][1,4]oxazepin-4(5H)-yl)methyl)-4-methylphenyl)pentanoic Acid, Trifluoroacetic Acid Salt]	1000 to 10000	
CCC1CCN(Cc2nccn2Cc2cc(C(CCc3cn(CC)nn3)C(C)(C)C(=O)O)ccc2C)CC1 (single isomer, unassigned) [Example 249, 5-(1-ethyl-1H-1,2,3-triazol-4-yl)-3-(3-((2-((4-ethylpiperidin-1-yl)methyl)-1H-imidazol-1-yl)methyl)-4-methylphenyl)-2,2-dimethylpentanoic Acid]		EC50: 1 to 10 nM
Cc1ccc([C@H](CC(=O)O)c2ccc3c(nnn3C)c2C)cc1CN1Cc2cc(F)ccc2OC(C)(C)C1 [Example 62, (S)-3-(1,4-Dimethyl-1H-benzo[d][1,2,3]triazol-5-yl)-3-(3-((7-fluoro-2,2-dimethyl-2,3-dihydrobenzo[f][1,4]oxazepin-4(5H)-yl)methyl)-4-methylphenyl)propanoic acid, 1.5formic acid salt]	10 to 100	
Cc1ccc([C@@H](CC(=O)O)c2ccc3c(nnn3C)c2C)cc1CN1CCCC(n2cccn2)C1 (single isomer, unassigned; isomer 2) [Example 158]		EC50: 1000 to 10000 nM
CCn1cc(CCC(c2ccc(C)c(CN3Cc4cccnc4OC(C)(C)C3)c2)C(C)(C)C(=O)O)nn1 (stereo not drawn) [Example 223, 3-(3-((2,2-Dimethyl-2,3-dihydropyrido[3,2-f][1,4]oxazepin-4(5H)-yl)methyl)-4-methylphenyl)-5-(1-ethyl-1H-1,2,3-triazol-4-yl)-2,2-dimethylpentanoic Acid]	1 to 10	
CCn1cc(CCC(c2ccc(C)c(CN3Cc4ncccc4OC(C)(C)C3)c2)C(C)(C)C(=O)O)nn1 (stereo not drawn) [Example 221, 3-(3-((2,2-Dimethyl-2,3-dihydropyrido[2,3-f][1,4]oxazepin-4(5H)-yl)methyl)-4-methylphenyl)-5-(1-ethyl-1H-1,2,3-triazol-4-yl)-2,2-dimethylpentanoic Acid]	10 to 100	
Cc1ccc([C@@H](c2ccc3c(nnn3C)c2C)[C@@H](C)C(=O)O)cc1CN1Cc2cnccc2OC(C)(C)C1 [Example 203, (2R,3S)-3-(1,4-Dimethyl-1H-benzo[d][1,2,3]triazol-5-yl)-3-(3-((2,2-dimethyl-2,3-dihydropyrido[3,4-f][1,4]oxazepin-4(5H)-yl)methyl)-4-methylphenyl)-2-methylpropanoic Acid, 0.2 Formic Acid Salt]	10 to 100	
CC[C@@H]1CN(Cc2cc([C@H](c3ccc4c(nnn4CC)c3C)[C@H](C)C(=O)O)ccc2C)Cc2cnccc2O1 [Example 197, (2S,3R)-3-(3-(((R)-2-Ethyl-2,3-dihydropyrido[3,4-f][1,4]oxazepin-4(5H)-yl)methyl)-4-methylphenyl)-3-(1-ethyl-4-methyl-1H-benzo[d][1,2,3]triazol-5-yl)-2-methylpropanoate, Sodium salt]	10 to 100	
CC[C@@H]1CN(Cc2cc([C@H](CC(=O)O)c3ccc4c(nnn4CC)c3Cl)ccc2C)Cc2ccccc2O1 [Example 66, (S)-3-(4-Chloro-1-ethyl-1H-benzo[d][1,2,3]triazol-5-yl)-3-(3-(((R)-2-ethyl-2,3-dihydrobenzo[f][1,4]oxazepin-4(5H)-yl)methyl)-4-methylphenyl)propanoate, Sodium Salt]		EC50: 10 to 100 nM
Cc1ccc(C(c2ccc3c(nnn3C)c2C)C(C)(C)C(=O)O)cc1CN1Cc2ccccc2OC(C)(C)C1 (stereo not drawn) [Example 8, 3-(1,4-Dimethyl-1H-benzo[d][1,2,3]triazol-5-yl)-3-(3-((2,2-dimethyl-2,3-dihydrobenzo[f][1,4]oxazepin-4(5H)-yl)methyl)-4-methylphenyl)-2,2-dimethylpropanoic Acid, Formic Acid Salt]	1 to 10	
3-(1,4-dimethyl-1H-benzo[d][1,2,3]triazol-5-yl)-3-(3-((8-methoxy-4-methyl-4,5-dihydro-1H-benzo[c]azepin-2(3H)-yl)methyl)-4-methylphenyl)propanoic Acid [Example 7]		EC50: 1000 to 10000 nM
